In one test the test system is dendritic cells. The conditions noted are these: Non-Patent Document 2; cited from earlier work.
For test [1], the system named is mouse-derived dendritic cells (FL-DCs). The test is described as follows: Binding of phage clones to mouse-derived dendritic cells by flow cytometric analysis (Test Example 1). It is filed as cell-based. As to conditions: phage clone displaying the peptide, 1.6×10^10 pfu/mL, 1×10^5 mouse-derived dendritic cells, flow cytometry with antibody against the phage. On the procedure:
Meanwhile, in the following test examples, unless otherwise indicated, as mouse-derived dendritic cells, dendritic cells (FL-DCs) that were obtained by culturing murine bone marrow cells in the presence of Flt3-L (final concentration 100 ng/ml) for 1 week to induce differentiation were used. In addition, in the following test examples, FL-DCs were analyzed in some cases separately for Plasmacytoid DCs (pDCs), CD11b positive dendritic cells (CD11b^+ DCs), and CD11b negative dendritic cells (CD11b^− DCs). Among the mouse-derived dendritic cells, pDCs is a group of CD11c positive and B220 positive cells; CD11b^+ DCs is a group of CD11c positive, B220 negative and CD11b positive cells among mouse-derived dendritic cells; CD11b^− DCs is a group of CD11c positive, B220 negative, and CD11b negative cells among mouse-derived dendritic cells.
Each of phages recovered by three panning operations was monocloned and amplified. 1×10^5 mouse-derived dendritic cells and 1.6×10^10 pfu/mL of each phage clone were mixed, and then the phage was assayed for the binding to dendritic cells by flow cytometric analysis using an antibody against the phage.
About 60 phage clones obtained were subjected to flow cytometric analysis as described above. As a result, 37 clones shown in Table 1 were identified as clones capable of binding to dendritic cells. […]
In general terms: In flow cytometry, cells or beads pass a laser one at a time.

The subject of test [2] is dendritic cells contained in splenocytes. The test is described as follows: Binding of phage clones to dendritic cells contained in splenocytes, flow cytometry (Test Example 6). In kind it is cell-based, mouse. The conditions noted are these: phage clone 1.6×10^10 pfu/mL, 1×10^5 splenocytes. The procedure:
(§1) Specifically, 1×10^5 splenocytes collected from mice and 1.6×10^10 pfu/mL of each phage clone were mixed, and the biotinylated antibody to the phage was added. Further, streptavidin modified with a fluorescent dye was added, and the binding of the phage to splenocytes was evaluated by flow cytometric analysis.

The subject of test [3] is CD4^+ T cells contained in splenocytes. The test is described as follows: Binding of phage clones to CD4+ T cells contained in splenocytes, flow cytometry (Test Example 6). As to conditions: phage clone 1.6×10^10 pfu/mL, 1×10^5 splenocytes. In kind it is cell-based, mouse. On the procedure: as §1
In test [4] the test system is bone marrow-derived dendritic cells (FL-DCs). As to the kind of experiment: Binding of biotinylated peptide/streptavidin complex to dendritic cells, flow cytometry (Test Example 7). In kind it is cell-based, mouse. As to conditions: 0.6 μg complex, PE-labeled streptavidin, FL-DCs and spleen-derived dendritic cells. On the procedure: A biotinylated peptide/streptavidin complex was produced in the same manner as in Test Example 4 above using each of the peptide consisting of the amino acid sequence of FL4 identified in Test Example 1 above and its scramble peptide (amino acid sequence: YRSIVKA; SEQ ID NO: 38).
Each of various test cells and 0.6 μg of each of various complexes were mixed, and then the binding of each of various complexes to cells was evaluated by flow cytometric analysis. Cells used were 1×10^5 FL-DCs, 1×10^6 CD11c positive cells purified from the spleen using MACS (the spleen-derived dendritic cells) and 1×10^6 murine splenocytes.

Test [5] deals with NeutrAvidin-specific antibody. The test is described as follows: NeutrAvidin-specific antibody titer in sera of mice given biotinylated peptide/NeutrAvidin complex, ELISA (Test Example 12). In kind it is in vivo, mouse. As to conditions: 5 μg as NeutrAvidin, base of tail Day 0 and Day 10, serum Day 17, IgG. From the text: A biotinylated peptide was synthesized by linking the N-terminus of each of FL4 identified in Test Example 1, a peptide Mut 1 (amino acid sequence: ASYKAIR (SEQ ID NO: 2)) derived from FL4 of which the 1st amino acid residue was substituted by an alanine residue, a peptide Mut 2 (amino acid sequence: VAYKAIR (SEQ ID NO: 3)) derived from FL4 of which the 2nd amino acid residue was substituted by an alanine residue, a peptide Mut 3 (amino acid sequence: VSAKAIR, SEQ ID NO: 43) derived from FL4 of which the 3rd amino acid residue was substituted by an alanine residue, and a peptide Mut 4 (amino acid sequence: VSYKAAR, SEQ ID NO: 44) derived from FL4 of which the […] amino acid residue was substituted by an alanine residue to biotin. Subsequently, a biotinylated peptide/NeutrAvidin complex was produced by mixing each of the obtained biotinylated peptides and NeutrAvidin.
50 μL of physiological saline containing 5 μg of the complex or NeutrAvidin in terms of NeutrAvidin amount was administered into the base of the tail of each 7-week old C57BL/6 mouse on Day 0 and Day 10, and blood was collected on Day 17. As a control, a test was also carried out in the case where only physiological saline was administered in the same manner Meanwhile, in these tests, five mice in each group were used.
Sera were obtained from the blood collected on Day 17 and NeutrAvidin-specific antibody titer (IgG) in the sera was measured by ELISA. In FIG. 18, “NA” refers to the case of administration of NeutrAvidin, and “NA-FL4” refers to the case of administration of the biotinylated FL4/NeutrAvidin complex. Other peptides are shown in the same display format. Further, in FIG. 18, “cont” refers to the case where physiological saline was administered.

In the next test the test system is Clec9a. The conditions noted are these: Non-Patent Document 1; cited from earlier work.

Entries after “also recorded” stand apart in the source; their conditions may differ.

Sequence of Clec9a (Q8BRU4 106-238 limits assumed): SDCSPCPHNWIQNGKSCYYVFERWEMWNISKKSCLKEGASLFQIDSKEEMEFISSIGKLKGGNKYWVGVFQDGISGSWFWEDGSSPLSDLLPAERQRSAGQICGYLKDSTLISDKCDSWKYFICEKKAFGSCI

Regarding NWYLPWLGTNDW (NW peptide), the “binding ability to dendritic cells” value in the test with dendritic cells is given as “high binding ability to dendritic cells”.
As to “VSYKAIR (Amino acid sequence of motif sequence) [FL4, also tested as biotinylated complex]”, the “binding of phage clone to dendritic cells” value in test [1] is “bound to all dendritic cells; also recorded: binding to bone marrow-derived dendritic cells was confirmed”. For the same substance, the “binding of phage clone to dendritic cells contained in splenocytes” value in test [2] is recorded as “bind to all dendritic cells contained in splenocytes; also recorded: equivalent to that of FL8”. Besides, the “binding of phage clone to CD4+ T cells contained in splenocytes” value in test [3] was “also bound to CD4^+ T cells contained in splenocytes”. Moreover, the “binding ability of biotinylated peptide/streptavidin complex to dendritic cells” value in test [4] is listed as “equivalent to that of the peptide consisting of the amino acid sequence of FL8”. Moreover, in test [5], the NeutrAvidin-specific antibody production result is “excellent production ability”.
As to WPRFHSSVFHTH (WH peptide), the “binding to Clec9a expressed on dendritic cells” value in the test with Clec9a is listed as “can selectively bind to Clec9a”.

The values are drawn from US11186618B2, “Dendritic-cell-targeted peptide, fusion peptide utilizing said peptide, and vaccine utilizing said fusion peptide” (The Research Foundation for Microbial Diseases of Osaka …, priority 2016, dated 2021).
